Assay results reported in PubChem BioAssay AID328 (DTP/NCI, 2004).
Several values for one entry are separate records, joined by “and”; a condition that tells them apart may be missing. Identical values can stand only once. Toxic doses and inconclusive results are not listed.

System: BDF1 mice, P388 leukemia ip, median survival T/C
Experiment: NCI In Vivo Anticancer Drug Screen. Data for tumor model P388 Leukemia (intraperitoneal) in B6D2F1 (BDF1) mice
Conditions: endpoint: median survival time, higher = longer survival
Summary of the method: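 Compound-treated tumour-bearing mice were compared with vehicle-treated controls. Survival was recorded, and the value is the treated-group measurement divided by the control-group measurement (T/C).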

[1] = dose: 50.0 mg/kg/injection, schedule: Q01DX009 (ip), vehicle: saline with Tween-80
[2] = dose: 100.0 mg/kg/injection, schedule: Q01DX009 (ip), vehicle: saline with Tween-80
[3] = dose: 200.0 mg/kg/injection, schedule: Q01DX009 (ip), vehicle: saline with Tween-80
[4] = dose: 25.0 mg/kg/injection, schedule: Q01DX009 (ip), vehicle: saline
[5] = dose: 50.0 mg/kg/injection, schedule: Q01DX009 (ip), vehicle: saline
[6] = dose: 50.0 mg/kg/injection, schedule: Q04DX003 (ip), vehicle: saline
[7] = dose: 100.0 mg/kg/injection, schedule: Q04DX003 (ip), vehicle: saline
[8] = dose: 25.0 mg/kg/injection, schedule: Q01DX009 (ip), vehicle: saline with Tween-80
[9] = dose: 50.0 mg/kg/injection, schedule: Q04DX003 (ip), vehicle: saline with Tween-80
[10] = dose: 100.0 mg/kg/injection, schedule: Q04DX003 (ip), vehicle: saline with Tween-80
[11] = dose: 200.0 mg/kg/injection, schedule: Q04DX003 (ip), vehicle: saline with Tween-80
[12] = dose: 400.0 mg/kg/injection, schedule: Q04DX003 (ip), vehicle: saline with Tween-80

Question: What does the source list for CC1(C)N=C(N)N=C(N)N1c1ccc(CCCCc2ccc(Cl)cc2Cl)cc1?
Answer: T/C (dose: 4.0 mg/kg/injection, schedule: Q01DX009 (ip), vehicle: saline): 118 % of control; T/C (dose: 25.0 mg/kg/injection, schedule: Q01DX002 (ip), vehicle: saline): 91 % of control; T/C (dose: 50.0 mg/kg/injection, schedule: Q01DX002 (ip), vehicle: saline): 103 % of control

Question: COc1ccc2c(c1OC)C1C3CC=CC3C2C2=[N+]1CCc1cc3c(cc12)OCO3 (stereo unspecified) was tested. Which T/C (dose: 3.12 mg/kg/injection, schedule: Q01DX009 (ip), vehicle: saline) did it give?
Answer: 95 % of control

Question: And the T/C (dose: 6.25 mg/kg/injection, schedule: Q01DX009 (ip), vehicle: Klucel (hydroxypropylcellulose) (HPC))?
Answer: 114 % of control

Question: And the T/C (dose: 6.25 mg/kg/injection, schedule: Q01DX009 (ip), vehicle: saline)?
Answer: 100 % of control

Question: What about the T/C (dose: 12.5 mg/kg/injection, schedule: Q01DX009 (ip), vehicle: Klucel (hydroxypropylcellulose) (HPC)) of the same compound?
Answer: 90 % of control

Question: And the T/C (dose: 12.5 mg/kg/injection, schedule: Q01DX009 (ip), vehicle: saline)?
Answer: 108 % of control

Question: What about the T/C (dose: 18.0 mg/kg/injection, schedule: Q01DX009 (ip), vehicle: Klucel (hydroxypropylcellulose) (HPC)) of the same compound?
Answer: 86 % of control

Question: How did the T/C [1] turn out when Clc1ccc(-c2ccccc2)cc1Cl was run?
Answer: 115 % of control

Question: And the T/C [2]?
Answer: 114 % of control

Question: And the T/C [3]?
Answer: 118 % of control

Question: What does the source list for O/N=C(\c1ccccc1)C(c1ccccc1)C(Cl)(Cl)Cl (stereo unspecified)?
Answer: T/C (dose: 100.0 mg/kg/injection, schedule: Q04DX003 (ip), vehicle: Klucel (hydroxypropylcellulose) (HPC)): 100 % of control; T/C (dose: 200.0 mg/kg/injection, schedule: Q04DX003 (ip), vehicle: Klucel (hydroxypropylcellulose) (HPC)): 100 % of control; T/C (dose: 400.0 mg/kg/injection, schedule: Q04DX003 (ip), vehicle: Klucel (hydroxypropylcellulose) (HPC)): 100 % of control

Question: What does the source list for O=c1ccc2cc(-c3c(Oc4cc5ccc(O)cc5oc4=O)ccc4ccc(=O)oc34)c(O)cc2o1?
Answer: T/C (dose: 3.0 mg/kg/injection, schedule: Q01DX009 (ip), vehicle: saline): 96 % of control; T/C (dose: 6.0 mg/kg/injection, schedule: Q01DX009 (ip), vehicle: saline): 111 % of control; T/C (dose: 12.0 mg/kg/injection, schedule: Q01DX009 (ip), vehicle: saline): 105 % of control

Question: How did the T/C (dose: 7.5 mg/kg/injection, schedule: Q01DX009 (ip), vehicle: saline with Tween-80) turn out when CNC(=S)N/N=C(\C)CSC/C(C)=N/NC(=S)NC was run?
Answer: 102 % of control

Question: And the T/C (dose: 15.0 mg/kg/injection, schedule: Q01DX009 (ip), vehicle: saline with Tween-80)?
Answer: 99 % of control and 122 % of control

Question: And the T/C (dose: 30.0 mg/kg/injection, schedule: Q01DX009 (ip), vehicle: saline with Tween-80)?
Answer: 102 % of control and 124 % of control

Question: What about the T/C (dose: 60.0 mg/kg/injection, schedule: Q01DX009 (ip), vehicle: saline with Tween-80) of the same compound?
Answer: 92 % of control

Question: Which results are given for Cn1c(=O)c2[nH]c(CCCc3nc4c([nH]3)c(=O)n(C)c(=O)n4C)nc2n(C)c1=O?
Answer: T/C [4]: 90 % of control; T/C [5]: 89 % of control; T/C [6]: 100 % of control; T/C (dose: 100.0 mg/kg/injection, schedule: Q01DX009 (ip), vehicle: saline): 96 % of control and 122 % of control; T/C [7]: 108 % of control

Question: For Cc1ncc(CO)c(/C=N/OCc2ccc(OCc3ccccc3)cc2)c1O, which T/C (dose: 50.0 mg/kg/injection, schedule: Q04DX003 (ip), vehicle: saline sonified) is on record?
Answer: 100 % of control

Question: And the T/C (dose: 100.0 mg/kg/injection, schedule: Q04DX003 (ip), vehicle: saline sonified)?
Answer: 100 % of control

Question: What about the T/C (dose: 200.0 mg/kg/injection, schedule: Q04DX003 (ip), vehicle: saline sonified) of the same compound?
Answer: 95 % of control

Question: With NC(=O)Oc1cccc(OC(N)=O)c1 as the compound, how does the T/C (dose: 12.5 mg/kg/injection, schedule: Q04DX003 (ip), vehicle: water) read?
Answer: 106 % of control

Question: What about the T/C (dose: 25.0 mg/kg/injection, schedule: Q04DX003 (ip), vehicle: water) of the same compound?
Answer: 106 % of control

Question: And the T/C (dose: 50.0 mg/kg/injection, schedule: Q04DX003 (ip), vehicle: water)?
Answer: 111 % of control

Question: And the T/C (dose: 100.0 mg/kg/injection, schedule: Q04DX003 (ip), vehicle: water)?
Answer: 106 % of control

Question: Which results are given for CC(C)=CCC/C(C)=C\CCl?
Answer: T/C [8]: 105 % of control; T/C (dose: 37.5 mg/kg/injection, schedule: Q01DX009 (ip), vehicle: saline with Tween-80): 99 % of control; T/C [1]: 121 % of control; T/C [9]: 107 % of control; T/C (dose: 75.0 mg/kg/injection, schedule: Q01DX009 (ip), vehicle: saline with Tween-80): 122 % of control; T/C [2]: 105 % of control; T/C [10]: 111 % of control

Question: What does the source list for Nc1nc(N)c2cc(S(=O)(=O)c3ccc(Cl)c(Cl)c3)ccc2n1?
Answer: T/C [1]: 100 % of control; T/C [2]: 91 % of control; T/C [3]: 102 % of control

Question: With CCOC(=O)c1cc2ccccc2oc1=O as the compound, how does the T/C [8] read?
Answer: 95 % of control

Question: And the T/C (dose: 25.0 mg/kg/injection, schedule: Q04DX003 (ip), vehicle: saline with Tween-80)?
Answer: 115 % of control

Question: And the T/C [1]?
Answer: 100 % of control

Question: And the T/C [9]?
Answer: 105 % of control

Question: What about the T/C [10] of the same compound?
Answer: 105 % of control

Question: What does the source list for Nc1nc(N)c2cc(CNc3ccc(C(=O)NC(CC(=O)O)CC(=O)O)cc3)cnc2n1?
Answer: T/C [10]: 101 % of control; T/C [11]: 113 % of control; T/C (dose: 300.0 mg/kg/injection, schedule: Q04DX003 (ip), vehicle: saline with Tween-80): 86 % of control

Question: How did the T/C [10] turn out when CCOC(=O)c1c(OCCCc2ccc(F)cc2)cc2ccc3ccccc3c2c1OCCCc1ccc(F)cc1 was run?
Answer: 86 % of control

Question: And the T/C [11]?
Answer: 87 % of control

Question: And the T/C [12]?
Answer: 103 % of control

Question: CCCCN(C)c1ncnc2[nH]ncc12 was tested. Which T/C [4] did it give?
Answer: 100 % of control

Question: And the T/C (dose: 25.0 mg/kg/injection, schedule: Q04DX003 (ip), vehicle: saline)?
Answer: 95 % of control

Question: And the T/C [5]?
Answer: 109 % of control

Question: And the T/C [6]?
Answer: 95 % of control

Question: And the T/C [7]?
Answer: 91 % of control

Question: With CC(=O)[C@H]1CC[C@H]2[C@@H]3C[C@H](C)C4=CC(=O)CC[C@]4(C)[C@H]3C(=O)C[C@]12C as the compound, how does the T/C [10] read?
Answer: 103 % of control

Question: What about the T/C [11] of the same compound?
Answer: 107 % of control

Question: And the T/C [12]?
Answer: 103 % of control

Question: CN=C(NN(C)C)c1ccc(NC(=O)c2ccc(C(=O)Nc3ccc(C(=NC)NN(C)C)cc3)cc2)cc1 was tested. Which T/C (dose: 4.0 mg/kg/injection, schedule: Q01DX009 (ip), vehicle: saline with Tween-80) did it give?
Answer: 100 % of control

Question: What about the T/C (dose: 9.0 mg/kg/injection, schedule: Q01DX009 (ip), vehicle: saline with Tween-80) of the same compound?
Answer: 150 % of control

Question: Which results are given for CC1(C)OC2C=CC3C(OC(=O)C3(C)Cl)C2O1 (stereo unspecified)?
Answer: T/C (dose: 50.0 mg/kg/injection, schedule: Q04DX002 (ip), vehicle: saline with Tween-80): 112 % of control and 114 % of control; T/C (dose: 100.0 mg/kg/injection, schedule: Q04DX002 (ip), vehicle: saline with Tween-80): 99 % of control and 103 % of control and 104 % of control; T/C (dose: 200.0 mg/kg/injection, schedule: Q04DX002 (ip), vehicle: saline with Tween-80): 103 % of control and 104 % of control; T/C (dose: 400.0 mg/kg/injection, schedule: Q04DX002 (ip), vehicle: saline with Tween-80): 99 % of control and 101 % of control (2×)

Question: How did the T/C (dose: 100.0 mg/kg/injection, schedule: Q01DX009 (ip), vehicle: gum acacia) turn out when Cc1ccc(C(CC(=O)O)CC(=O)O)c(O)c1 was run?
Answer: 100 % of control

Question: What about the T/C (dose: 100.0 mg/kg/injection, schedule: Q04DX003 (ip), vehicle: gum acacia) of the same compound?
Answer: 111 % of control

Question: And the T/C (dose: 200.0 mg/kg/injection, schedule: Q01DX009 (ip), vehicle: gum acacia)?
Answer: 103 % of control

Question: What about the T/C (dose: 200.0 mg/kg/injection, schedule: Q04DX003 (ip), vehicle: gum acacia) of the same compound?
Answer: 103 % of control

Question: And the T/C (dose: 400.0 mg/kg/injection, schedule: Q01DX009 (ip), vehicle: gum acacia)?
Answer: 89 % of control

Question: What about the T/C (dose: 400.0 mg/kg/injection, schedule: Q04DX003 (ip), vehicle: gum acacia) of the same compound?
Answer: 88 % of control

Question: Which results are given for Cc1ccc(C(=O)C2(c3ccc(C)cc3)OC(c3ccc(C)cc3)=C(c3ccc(C)cc3)S2)cc1 (stereo unspecified)?
Answer: T/C (dose: 50.0 mg/kg/injection, schedule: Q01DX009 (ip), vehicle: other): 104 % of control; T/C (dose: 100.0 mg/kg/injection, schedule: Q01DX009 (ip), vehicle: other): 100 % of control; T/C (dose: 200.0 mg/kg/injection, schedule: Q01DX009 (ip), vehicle: other): 100 % of control

Question: With CC(C)=C(CO)CCC(C)C as the compound, how does the T/C [9] read?
Answer: 109 % of control

Question: And the T/C [10]?
Answer: 122 % of control

Question: And the T/C [11]?
Answer: 118 % of control
